From patent US4337199A, “Antibiotic β-lactam compounds, production thereof, and their use as antimicrobial agent” (Sanraku-Ocean Co., Ltd., priority 1978, dated 1982)
Converted amounts (≈) assume the structure as drawn.

Assays:
[1] = tested on: Staphylococcus aureus Smith; experiment: minimum inhibitory concentration, agar dilution assay; assay type: cell-based; details: agar dilution, 35° C., 20 hours, read-out: minimum inhibitory concentration
Procedure: (§1) The antibiotic activities shown in Tables I-1 to I-8 above were determined in the following manner.
(§2) The minimum inhibitory concentrations of the compounds of formula (I-a-1) or (I-b-1) in Tables I-1 to I-7 and the known compounds in Table I-8 on the various microorganisms shown in the above tables were measured by an agar dilution assay method using a brain heart infusion agar medium "Difco" (a product of Difco Laboratories Inc.)
(§3) A sample of the test compound was dissolved in sterile distilled water and diluted to prepare a two-fold dilution series of the compound solution. In a petri plate of 9 cm diameter, 1 ml of the compound solution was added to 9 ml of molten sterile heart infusion agar medium (Difco Laboratories Inc.) at about 60° C. to prepare the compound-containing agar plate. An overnight culture of each test organism indicated in the above table which was prepared by stationary cultivation in Trypto-Soy broth (Eiken Chemi. Co., Ltd.) at 35° C. for 18 to 20 hours, was diluted with the Trypto-Soy broth to give approximately 10^8 cells/ml and the diluted inoculum was inoculated onto the compound-containing agar plates. After cultivating the plates at 35° C. for 20 hours, the growth of the organism was observed. The minimum concentration of the compound at which no growth of the microorganism was noted was determined, and defined as the minimum inhibitory concentration of the test compound.

Escherichia coli RGN 823 = experiment: as above; assay type: cell-based; details: RGN823, agar dilution, 35° C., 20 hours, read-out: minimum inhibitory concentration
Procedure: as §1, §2, §3

Enterobacter sp. E8 = experiment: as above; assay type: cell-based; details: SP.E8, agar dilution, 35° C., 20 hours, read-out: minimum inhibitory concentration
Procedure: as §1, §2, §3

[2] = tested on: Enterobacter aerogenes E19; experiment: as above; assay type: cell-based; details: Klebsiella aerogenes, E19; agar dilution, 35° C., 20 hours; read-out: minimum inhibitory concentration
Procedure: as §1, §2, §3

Proteus mirabilis P6 = experiment: as above; assay type: cell-based; details: P6, agar dilution, 35° C., 20 hours, read-out: minimum inhibitory concentration
Procedure: as §1, §2, §3

[3] = tested on: Staphylococcus epidermidis; experiment: as above; assay type: cell-based; details: agar dilution, 35° C., 20 hours, read-out: minimum inhibitory concentration
Procedure: as §1, §2, §3

Serratia marcescens S18 = experiment: as above; assay type: cell-based; details: S18, agar dilution, 35° C., 20 hours, read-out: minimum inhibitory concentration
Procedure: as §1, §2, §3

Escherichia coli K-12 = experiment: as above; assay type: cell-based; details: K12, agar dilution, 35° C., 20 hours, read-out: minimum inhibitory concentration
Procedure: as §1, §2, §3

[4] = tested on: Staphylococcus aureus FDA 209P; experiment: as above; assay type: cell-based; details: FDA209P, agar dilution, 35° C., 20 hours, read-out: minimum inhibitory concentration
Procedure: as §1, §2, §3

[5] = tested on: Comamonas terrigena B-996; experiment: as above; assay type: cell-based; details: B996, agar dilution, 35° C., 20 hours, read-out: minimum inhibitory concentration
Procedure: as §1, §2, §3

Providencia sp. P8 = experiment: as above; assay type: cell-based; details: SP.P8, agar dilution, 35° C., 20 hours, read-out: minimum inhibitory concentration
Procedure: as §1, §2, §3

Proteus vulgaris GN76 = experiment: as above; assay type: cell-based; details: GN76, agar dilution, 35° C., 20 hours, read-out: minimum inhibitory concentration
Procedure: as §1, §2, §3

Proteus sp. P22 = experiment: as above; assay type: cell-based; details: agar dilution, 35° C., 20 hours; read-out: minimum inhibitory concentration
Procedure: as §1, §2, §3

[6] = tested on: Klebsiella pneumoniae K-13; experiment: as above; assay type: cell-based; details: K13, agar dilution, 35° C., 20 hours, read-out: minimum inhibitory concentration
Procedure: as §1, §2, §3

Proteus rettgeri P7 = experiment: as above; assay type: cell-based; details: Providencia rettgeri, P7; agar dilution, 35° C., 20 hours; read-out: minimum inhibitory concentration
Procedure: as §1, §2, §3

Enterobacter cloacae 45 = experiment: as above; assay type: cell-based; details: Enterobacter cloacae, 45; agar dilution, 35° C., 20 hours; read-out: minimum inhibitory concentration
Procedure: as §1, §2, §3

[7] = tested on: Bacillus subtilis ATCC 6633; experiment: as above; assay type: cell-based; details: ATCC6633, agar dilution, 35° C., 20 hours, read-out: minimum inhibitory concentration
Procedure: as §1, §2, §3

Sarcina lutea = experiment: as above; assay type: cell-based; details: Micrococcus luteus; agar dilution, 35° C., 20 hours; read-out: minimum inhibitory concentration
Procedure: as §1, §2, §3

Alcaligenes faecalis A 1 = experiment: as above; assay type: cell-based; details: A1, agar dilution, 35° C., 20 hours, read-out: minimum inhibitory concentration
Procedure: as §1, §2, §3

[8] = tested on: Citrobacter freundii GN 346; experiment: as above; assay type: cell-based; details: GN346, agar dilution, 35° C., 20 hours, read-out: minimum inhibitory concentration
Procedure: as §1, §2, §3

[9] = tested on: Staphylococcus aureus Russell; experiment: as above; assay type: cell-based; details: agar dilution, 35° C., 20 hours, read-out: minimum inhibitory concentration
Procedure: as §1, §2, §3

[10] = tested on: Pseudomonas aeruginosa NCTC10490; experiment: as above; assay type: cell-based; details: NCTC10490, agar dilution, 35° C., 20 hours, read-out: minimum inhibitory concentration
Procedure: as §1, §2, §3

Serratia marcescens T55 = experiment: as above; assay type: cell-based; details: T55, agar dilution, 35° C., 20 hours, read-out: minimum inhibitory concentration
Procedure: as §1, §2, §3

[11] = tested on: Pseudomonas aeruginosa IFO3445; experiment: as above; assay type: cell-based; details: IFO3445, agar dilution, 35° C., 20 hours, read-out: minimum inhibitory concentration
Procedure: as §1, §2, §3

[12] = tested on: Staphylococcus aureus Smith strain; experiment: Infection treating test; assay type: in vivo, Staphylococcus aureus (in ddy male mice); details: sc, 2 h, mice infected intraperitoneally, 5×10^5 cells per mouse, subcutaneous, two hours after infection, read-out: CD50 (the source's name)
Procedure: The in vivo activities of the compounds of formula (I-d) were determined by using mice (five per group, ddy male mice, Shizuoka) which had been intraperitoneally infected with Staphylococcus aureus Smith strain in an amount of 5×10^5 cells per mouse. Two hours after the infection, an injection containing a sodium salt of each of the compounds of formula (I-d) was subcutaneously administered to the mice.

[13] = tested on: Gram-positive and Gram-negative bacteria; experiment: antibiotic activity (antimicrobial spectrum); assay type: cell-based; details: comparison in words
Procedure: as §2, §3

Compound | MIC [1] | MIC (Escherichia coli RGN 823) | MIC (Enterobacter sp. E8) | MIC [2] | MIC (Proteus mirabilis P6) | MIC [3] | MIC (Serratia marcescens S18) | MIC (Escherichia coli K-12) | MIC [4] | MIC [5] | MIC (Providencia sp. P8) | MIC (Proteus vulgaris GN76) | MIC (Proteus sp. P22) | MIC [6] | MIC (Proteus rettgeri P7) | MIC (Enterobacter cloacae 45) | MIC [7] | MIC (Sarcina lutea) | MIC (Alcaligenes faecalis A 1) | MIC [8] | other results
CC(O)C1C(=O)N2C(C(=O)O)=C(Sc3ccncc3)CC12 (stereo not drawn) [Example 60, 5,6-cis-3-(4-Pyridylthio)-6-(1-hydroxyethyl)-7-oxo-1-azabicyclo[3.2.0]hept-2-ene-2-carboxylic acid] | < 0.007 µg/mL | 6.25 µg/mL (≈ 20.4 µM) | 0.025 µg/mL (≈ 0.0816 µM) | 1.56 µg/mL (≈ 5.09 µM) | 0.39 µg/mL (≈ 1.27 µM) | < 0.007 µg/mL | 50 µg/mL (≈ 163 µM) | 0.05 µg/mL (≈ 0.163 µM) | < 0.007 µg/mL | < 0.007 µg/mL | 0.2 µg/mL (≈ 0.653 µM) | 50 µg/mL (≈ 163 µM) | 50 µg/mL (≈ 163 µM) | 25 µg/mL (≈ 81.6 µM) | 0.78 µg/mL (≈ 2.55 µM) | 6.25 µg/mL (≈ 20.4 µM) | < 0.007 µg/mL | < 0.007 µg/mL | < 0.007 µg/mL | 6.25 µg/mL (≈ 20.4 µM) | MIC [9]: < 0.007 µg/mL; MIC [10]: 1.56 µg/mL (≈ 5.09 µM); MIC (Serratia marcescens T55): 25 µg/mL (≈ 81.6 µM); MIC [11]: 1.56 µg/mL (≈ 5.09 µM); ED50 [12]: 0.125 mg/kg
CCC1C(=O)N2C(C(=O)O)=C(SCCNC(C)=O)CC12 (centres unmarked) [PS-5, 3-(2-acetaminothylthio)-6-ethyl-7-oxo-1-azabicyclo-[3.2.0]hept-2-ene-2-carboxylic acid, reference compound] | 0.1 µg/mL (≈ 0.335 µM) | 3.13 µg/mL (≈ 10.5 µM) | 1.56 µg/mL (≈ 5.23 µM) | 3.13 µg/mL (≈ 10.5 µM) | 6.25 µg/mL (≈ 20.9 µM) | 0.1 µg/mL (≈ 0.335 µM) | 6.25 µg/mL (≈ 20.9 µM) | 1.56 µg/mL (≈ 5.23 µM) | 0.025 µg/mL (≈ 0.0838 µM) | 0.013 µg/mL (≈ 0.0436 µM) | 3.13 µg/mL (≈ 10.5 µM) | 12.5 µg/mL (≈ 41.9 µM) | 25 µg/mL (≈ 83.8 µM) | 6.25 µg/mL (≈ 20.9 µM) | 12.5 µg/mL (≈ 41.9 µM) | 6.25 µg/mL (≈ 20.9 µM) | 0.1 µg/mL (≈ 0.335 µM) | 0.05 µg/mL (≈ 0.168 µM) | 0.39 µg/mL (≈ 1.31 µM) | 3.13 µg/mL (≈ 10.5 µM) | MIC [9]: 0.1 µg/mL (≈ 0.335 µM); MIC [10]: 12.5 µg/mL (≈ 41.9 µM); MIC (Serratia marcescens T55): 6.25 µg/mL (≈ 20.9 µM); MIC [11]: 25 µg/mL (≈ 83.8 µM); antibiotic activity (in words) [13]: better antibiotic activity than cephazolin (CEZ)
CCC1C(=O)N2C(C(=O)O)=C(SCCO)CC12 (centres unmarked) [R1 H, R21 --CH2 CH2 OH, sodium 3-(2-hydroxyethylthio)-6-ethyl-7-oxo-1-azabicylo[3.2.0]hept-2-ene-2-carboxylate] | 0.1 µg/mL | 12.5 µg/mL | 3.13 µg/mL | 3.13 µg/mL | 12.5 µg/mL | 0.2 µg/mL | 6.25 µg/mL | 3.13 µg/mL | 0.05 µg/mL | 0.025 µg/mL | 3.13 µg/mL | 25 µg/mL | 50 µg/mL | 12.5 µg/mL | 12.5 µg/mL | 6.25 µg/mL | 0.1 µg/mL | 0.1 µg/mL | 1.56 µg/mL | 3.13 µg/mL | MIC [9]: 0.2 µg/mL; MIC [10]: 12.5 µg/mL; MIC (Serratia marcescens T55): 12.5 µg/mL; MIC [11]: 12.5 µg/mL

Continued, in another order:

MIC [1] | MIC (Escherichia coli RGN 823) | MIC (Enterobacter sp. E8) | MIC [2] | MIC (Proteus mirabilis P6) | MIC [3] | MIC (Serratia marcescens S18) | MIC (Escherichia coli K-12) | MIC [4] | MIC [5] | MIC (Providencia sp. P8) | MIC (Proteus vulgaris GN76) | MIC (Proteus sp. P22) | MIC [6] | MIC (Proteus rettgeri P7) | MIC (Enterobacter cloacae 45) | MIC [7] | MIC (Sarcina lutea) | MIC (Alcaligenes faecalis A 1) | MIC [8] | Compound | other results
1.56 µg/mL (≈ 5.11 µM) | 50 µg/mL (≈ 164 µM) | 100 µg/mL (≈ 327 µM) | > 100 µg/mL | 100 µg/mL (≈ 327 µM) | 0.39 µg/mL (≈ 1.28 µM) | > 100 µg/mL | 50 µg/mL (≈ 164 µM) | 0.05 µg/mL (≈ 0.164 µM) | 0.05 µg/mL (≈ 0.164 µM) | 50 µg/mL (≈ 164 µM) | > 100 µg/mL | > 100 µg/mL | > 100 µg/mL | > 100 µg/mL | > 100 µg/mL | 6.25 µg/mL (≈ 20.5 µM) | 0.05 µg/mL (≈ 0.164 µM) | 25 µg/mL (≈ 81.9 µM) | > 100 µg/mL | CC(O)[C@H]1C(=O)N2C(C(=O)O)=C(Sc3ccccc3)C[C@H]12 (some centres unmarked) | MIC [9]: 0.78 µg/mL (≈ 2.55 µM); MIC [10]: 6.25 µg/mL (≈ 20.5 µM); MIC (Serratia marcescens T55): > 100 µg/mL; MIC [11]: 25 µg/mL (≈ 81.9 µM)
0.025 µg/mL (≈ 0.0819 µM) | 3.13 µg/mL (≈ 10.3 µM) | 12.5 µg/mL (≈ 40.9 µM) | > 100 µg/mL | 3.13 µg/mL (≈ 10.3 µM) | 0.05 µg/mL (≈ 0.164 µM) | 25 µg/mL (≈ 81.9 µM) | 6.25 µg/mL (≈ 20.5 µM) | 0.007 µg/mL (≈ 0.0229 µM) | 0.013 µg/mL (≈ 0.0426 µM) | 1.56 µg/mL (≈ 5.11 µM) | 12.5 µg/mL (≈ 40.9 µM) | 12.5 µg/mL (≈ 40.9 µM) | 25 µg/mL (≈ 81.9 µM) | 3.13 µg/mL (≈ 10.3 µM) | > 100 µg/mL | 0.013 µg/mL (≈ 0.0426 µM) | 0.013 µg/mL (≈ 0.0426 µM) | 0.39 µg/mL (≈ 1.28 µM) | 50 µg/mL (≈ 164 µM) | CC(C)C1C(=O)N2C(C(=O)O)=C(Sc3ncccn3)CC12 (centres unmarked) [Example 62, 3-(2-Pyrimidinylthio)-6-isopropyl-7-oxo-1-azabicyclo[3.2.0]hept-2-ene-2-carboxylic acid] | MIC [9]: 0.013 µg/mL (≈ 0.0426 µM); MIC [10]: 25 µg/mL (≈ 81.9 µM); MIC (Serratia marcescens T55): > 100 µg/mL; MIC [11]: 25 µg/mL (≈ 81.9 µM)
